# Patent US4639466A, “3',6-diisopentenyl-2',4'-dihydroxy-5,7-dimethoxy-isoflavan and related compounds useful as anxiolytic agents and avermectin antidotes” (Merck & Co., Inc., priority 1984, dated 1987)
# Where two headings read alike, the source gives them in different places.
# Columns and labels:
# [1] = test system: C. elegans; assay: C. elegans motility assay (effect on avermectin activity, % active worms); type: in vivo
# From the text: 1. The C. elegans motility assay:
# The procedures for the C. elegans motility assay is described in S. S. Pong et al., J. NuroChem. 34, 351-358, 1980.
# [2] = test system: benzodiazepine receptors; assay: Benzodiazepine receptor binding assay (BARIN; effect on ^3 H-diazepam binding)
# [3] = test system: benzodiazepine receptors; details: known from prior art; cited from earlier work
structure (smiles),measurement,setting,value
"COc1cc2c(c(OC)c1CC=C(C)C)CC(c1ccc(O)c(CC=C(C)C)c1O)CO2 (centres unmarked) [3',6-diisopentenyl-2',4'-dihydroxy-5,7-dimethoxyisoflavan]",antagonism of avermectin in the C. elegans motility assay,[1]; in vivo,potent antagonist of avermectin
same,% active worms,"[1]; isoflavan 5 μg/ml, avermectin 0 μg/ml",97%
same,% active worms,"[1]; isoflavan 5 μg/ml, avermectin 0.156 μg/ml",60%
same,% active worms,"[1]; isoflavan 5 μg/ml, avermectin 0.313 μg/ml",60%
same,% active worms,"[1]; isoflavan 5 μg/ml, avermectin 0.625 μg/ml",77%
same,% active worms,"[1]; isoflavan 25 μg/ml, avermectin 0 μg/ml",95%
same,% active worms,"[1]; isoflavan 25 μg/ml, avermectin 0.156 μg/ml",88%
same,% active worms,"[1]; isoflavan 25 μg/ml, avermectin 0.313 μg/ml",65%
same,% active worms,"[1]; isoflavan 25 μg/ml, avermectin 0.625 μg/ml",91%
same,blocking the highest dose of avermectin,"[1]; lowest dose level 5 μg/ml, avermectin 0.625 μg/ml",almost fully effective
same,effect on benzodiazepine binding,[2],stimulate the benzodiazepine-binding
same,EC50,"[2]; active compound (12 mg, k'=8) isolated from CH2 Cl2 extract of G. uralensis by HPLC",2 to 3 µg/mL
same,EC50 for stimulation of benzodiazepine-binding,[2]; stimulation of binding,3 µg/mL
CC[C@H](C)[C@H]1O[C@]2(C=C[C@@H]1C)C[C@@H]1C[C@@H](C/C=C(\C)[C@@H](O[C@H]3C[C@H](OC)[C@@H](O[C@H]4C[C@H](OC)[C@@H](O)[C@H](C)O4)[C@H](C)O3)[C@@H](C)/C=C/C=C3\CO[C@@H]4[C@H](O)C(C)=C[C@@H](C(=O)O1)[C@]34O)O2 [avermectin],% active worms,"[1]; isoflavan 0 μg/ml, avermectin 0.156 μg/ml (avermectin alone)",85%
same,% active worms,"[1]; isoflavan 0 μg/ml, avermectin 0.313 μg/ml (avermectin alone)",20%
same,% active worms,"[1]; isoflavan 0 μg/ml, avermectin 0.625 μg/ml (avermectin alone)",4%
CCCCNc1c(C(=O)OCC)c(C)nc2c1cnn2CC [tracazolate],effect on benzodiazepine binding,[3],stimulates benzodiazepine binding
